Reference: US20240279338A1, “Combination Treatment of Cancer” (Ares Trading S.A., priority 2021, published 2024)

What was measured:
MC38 cells = assay: CD73low MC38 syngeneic tumor model, tumor growth; format: in vivo, mice
Protocol: Female C57BL/6 mice were inoculated with 1×10^6 MC38 cells in the right lower flank and were treated with Compound A (300 mg/kg po, BID), bintrafusp alfa (24.6 mg/kg iv, days 0, 3, 6), Compound A+bintrafusp alfa, when average tumor volume reached approximately 70 mm^3. Vehicle (po, BID) and isotype control antibody injections (20 mg/kg iv, days 0, 3, 6) were used as controls. (A) Average tumor volumes with SEM, and (B) individual tumor volumes are presented. Tumor volume data were analyzed using two-way ANOVA followed by Tukey's multiple comparison test.
(§1) To determine whether combined treatment with the dual A2A/A2B receptor inhibitor “Compound A” ((S)-7-Oxa-2-aza-spiro[4.5]decane-2-carboxylic acid [7-(3,6-dihydro-2H-pyran-4-yl)-4-methoxy-thiazolo[4,5-c]pyridin-2-yl]-amide) and bintrafusp alfa can inhibit tumor growth in either CD73^hi or CD73^low models, tumor growth was monitored in […] syngeneic tumor models. Animals were inoculated with either CD73^hi tumor cells (4T1, E0771, or EMT6) or with CD73^low MC38, H22 or MBT2 tumor cells. For all tumor models, animals were treated with either 1) vehicle and isotype, 2) Compound A and isotype, 3) vehicle and bintrafusp alfa, or 4) Compound A and bintrafusp alfa. […]

E0771 cells = assay: CD73hi E0771 syngeneic tumor model, tumor growth; format: in vivo, mice; settings: for tumor growth inhibition, T/C: E0771, female C57BL/6 mice, Day 18 post treatment initiation
Protocol: Female C57BL/6 mice were inoculated with 1.5×10^5 E0771 cells into the right mammary fat pad and were treated with Compound A (300 mg/kg po, BID), bintrafusp alfa (8.2 mg/kg iv, days 0, 3, 6), Compound A+bintrafusp alfa, when average tumor volume reached approximately 75 mm^3. Vehicle (po, BID) and isotype control antibody injections (6.65 mg/kg iv, days 0, 3, 6) were used as controls. (A) Average tumor volumes with SEM, and (B) individual tumor volumes are presented. Tumor volume data were analyzed using two-way ANOVA followed by Tukey's multiple comparison test.
To determine whether combined treatment with the dual A2A/A2B receptor inhibitor “Compound A” ((S)-7-Oxa-2-aza-spiro[4.5]decane-2-carboxylic acid [7-(3,6-dihydro-2H-pyran-4-yl)-4-methoxy-thiazolo[4,5-c]pyridin-2-yl]-amide) and bintrafusp alfa can inhibit tumor growth in either CD73^hi or CD73^low models, tumor growth was monitored in […] syngeneic tumor models. Animals were inoculated with either CD73^hi tumor cells (4T1, E0771, or EMT6) or with CD73^low MC38, H22 or MBT2 tumor cells. For all tumor models, animals were treated with either 1) vehicle and isotype, 2) Compound A and isotype, 3) vehicle and bintrafusp alfa, or 4) Compound A and bintrafusp alfa.
In the third CD73^hi tumor model, female C57BL/6 mice were inoculated with 1.5×10^5 E0771 cells into the right mammary fat pad and were randomized into treatment groups when average tumor volume reached approximately 75 mm^3. […] Thus, to test its combination potential with Compound A in this model we had to reduce the dose for bintrafusp alfa from 24 mg/kg (iv, days 0, 3, and 6) down to 8.2 mg/kg (iv, days 0, 3, 6). Thus, E0771 tumor-bearing mice were treated with Compound A (300 mg/kg po, BID), bintrafusp alfa (8.2 mg/kg iv, days 0, 3, 6), Compound A+bintrafusp alfa starting the day 0 (when they were randomized into treatment groups). Vehicle (po, BID) and isotype control antibody injections (6.65 mg/kg iv, days 0, 3, 6) were used as controls.

4T1 cells = assay: CD73hi adenosine-rich 4T1 syngeneic tumor model, tumor growth; format: in vivo; settings: 4T1, female BALB/c mice; Day 13 post treatment initiation; Compound A 300 mg/kg po bid; bintrafusp alfa 24.6 mg/kg iv days 0, 3, 6
Protocol: Female BALB/c mice were inoculated with 5×10^4 4T1 cells into the right mammary fat pad and were treated with Compound A (300 mg/kg po, bid), bintrafusp alfa (24.6 mg/kg iv, days 0, 3, 6), Compound A+bintrafusp alfa, when average tumor volume reached approximately 60 mm^3. Vehicle (po, bid) and isotype control antibody injections (20 mg/kg iv, days 0, 3, 6) were used as controls. (A) Average tumor volumes with SEM, and (B) individual tumor volumes are presented. Tumor volume data were analyzed using two-way ANOVA followed by Tukey's multiple comparison test.
as §1

[1] = Compound A 300 mg/kg po BID, bintrafusp alfa 8.2 mg/kg iv days 0, 3, 6

Row | Compound | tumor growth inhibition, T/C (MC38 cells; MC38, female C57BL/6 mice, Day 22 post treatment initiation, Compound A 300 mg/kg po BID, bintrafusp alfa 24.6 mg/kg iv days 0, 3, 6) | tumor growth inhibition, T/C (E0771 cells; [1]) | sensitivity of the tumor model (E0771 cells; E0771, bintrafusp alfa original dose 24.6 mg/kg iv days 0, 3, and 6) | tumor growth inhibition, T/C (4T1 cells) | tumor growth inhibition (MC38 cells; MC38, Compound A 300 mg/kg po BID monotherapy) | mice with CR (complete responses) (E0771 cells; E0771, Compound A 300 mg/kg po BID, bintrafusp alfa 8.2 mg/kg iv days 0, 3, 6)
1 | bintrafusp alfa: anti-PD-L1:TGFβRII fusion protein, CAS 1918149-01-5; human IgG1 antibody against PD-L1 fused to extracellular domain of human TGF-β receptor II | 42.1% | 65.7% | high sensitivity | 86.2% | – | –
2 | COc1ncc(C2=CCOCC2)c2sc(NC(=O)N3CC[C@@]4(CCCOC4)C3)nc12 [Compound A, (S)-7-Oxa-2-aza-spiro[4.5]decane-2-carboxylic acid [7-(3,6-dihydro-2H-pyran-4-yl)-4-methoxy-thiazolo[4,5-c]pyridin-2-yl]-amide] | – | 72.9% | – | 68.5% | no tumor growth inhibition observed | 1
